Results published in patent US6495525B1, “VLA-4 inhibitor: oMePUPA-V” (Biogen, Inc., priority 1998, dated 2002).

Key:
VLA-4 = VLA-4 (Homo sapiens, UniProt P05556+P13612); experiment: CS1 Cell Adhesion Assay, Jurkat cells to CS1/BSA conjugate; assay type: cell-based; design: endogenous in cells; host or cells: Jurkat (human T cell line)
Method: The peptide NH2-cysteine-tyrosine-CS-1 was synthesized and coupled to BSA-SMCC (SMCC is a heterobifunctional crosslinker which reacts with free amino groups on BSA and the sole cysteine of the synthetic peptide) at a CS1/BSA ratio of 10:1. Wells were coated overnight with 100 μL of conjugate diluted to a final concentration of 1 ug/ml. The next day the wells were blocked with BSA in PBS for one hour and then washed three times.
The human T cell line, Jurkat, was labeled with 2 μM BCECF-AM, a fluorescent dye (2′, 7′, bis-(2-carboxyethyl)-5 and -6) carboxy fluorescein acetoxymethyl ester (Molecular Probes Inc., Eugene, Oregon; catalog #B-1150) that is internalized and deesterified thus trapping the dye within live cells. Jurkat cells (1×10^5 cells/well) in buffer containing 1 mM Mn^+2 were added to the coated plates in the presence of three-fold serial dilutions of inhibitor. Each concentration was assayed in duplicate. After 30 minutes at room temperature, the plates were inverted and washed three times or until no cells were adherent to control wells coated with BSA alone. CS1-adherent cells were quantitated in a Cytofluor fluorescent platereader using an excitation wavelength of 485 nm and an emission wavelength of 530 nm.
Cells adhered to CS1/BSA in the absence of compound served as the 0% inhibition control whereas cells adhering to BSA alone served as the 100% inhibition control. IC50's were calculated using Deltagraph software, version 5.

[1] = tested on: panel of radioligand, enzyme, and functional assays; experiment: Panlabs ProfilingScreen, DiscoveryScreen, Immunoscreen and Cerep membrane receptor panel
Method: oMePUPA-V was tested in the Panlabs ProfilingScreen, DiscoveryScreen, and Immunoscreen panel of radioligand, enzyme, and functional assays and in the Cerep membrane receptor panel.

[2] = Formulated / solution stability (HPLC); assay type: physicochemical
α4β7 = molecular target: T1, α4β7 (Homo sapiens, UniProt P13612+P26010); experiment: JY cell adhesion to CS1/BSA conjugate; assay type: cell-based; details: Mn+2
T1 construct: endogenous in cells; host or cells: JY cells
T1 sequence (P13612 34-1032): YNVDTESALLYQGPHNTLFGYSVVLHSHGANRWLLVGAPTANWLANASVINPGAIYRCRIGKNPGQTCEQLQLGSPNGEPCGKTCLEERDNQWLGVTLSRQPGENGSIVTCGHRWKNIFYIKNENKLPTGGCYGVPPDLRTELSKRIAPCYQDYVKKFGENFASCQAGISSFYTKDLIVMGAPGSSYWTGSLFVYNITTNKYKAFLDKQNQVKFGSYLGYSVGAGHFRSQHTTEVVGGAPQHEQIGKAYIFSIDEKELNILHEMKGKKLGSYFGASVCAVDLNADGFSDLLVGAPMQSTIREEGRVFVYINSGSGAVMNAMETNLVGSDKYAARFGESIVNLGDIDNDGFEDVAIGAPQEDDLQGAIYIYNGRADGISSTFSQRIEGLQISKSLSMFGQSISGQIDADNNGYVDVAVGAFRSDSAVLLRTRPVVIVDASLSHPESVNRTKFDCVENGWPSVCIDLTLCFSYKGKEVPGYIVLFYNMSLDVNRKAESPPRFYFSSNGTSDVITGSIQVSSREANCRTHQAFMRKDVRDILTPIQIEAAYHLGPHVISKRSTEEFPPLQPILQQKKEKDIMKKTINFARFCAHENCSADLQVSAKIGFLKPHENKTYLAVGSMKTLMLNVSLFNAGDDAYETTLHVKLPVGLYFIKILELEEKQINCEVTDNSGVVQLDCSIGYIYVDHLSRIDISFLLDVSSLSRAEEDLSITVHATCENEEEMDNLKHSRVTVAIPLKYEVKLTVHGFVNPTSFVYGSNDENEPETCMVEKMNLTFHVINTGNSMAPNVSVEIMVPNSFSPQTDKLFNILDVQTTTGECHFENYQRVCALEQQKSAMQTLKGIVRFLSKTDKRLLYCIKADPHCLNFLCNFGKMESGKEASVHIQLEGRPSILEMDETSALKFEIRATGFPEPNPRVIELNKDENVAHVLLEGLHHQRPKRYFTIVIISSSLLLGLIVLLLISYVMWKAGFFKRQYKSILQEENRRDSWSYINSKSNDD
T1 sequence (P26010 20-798): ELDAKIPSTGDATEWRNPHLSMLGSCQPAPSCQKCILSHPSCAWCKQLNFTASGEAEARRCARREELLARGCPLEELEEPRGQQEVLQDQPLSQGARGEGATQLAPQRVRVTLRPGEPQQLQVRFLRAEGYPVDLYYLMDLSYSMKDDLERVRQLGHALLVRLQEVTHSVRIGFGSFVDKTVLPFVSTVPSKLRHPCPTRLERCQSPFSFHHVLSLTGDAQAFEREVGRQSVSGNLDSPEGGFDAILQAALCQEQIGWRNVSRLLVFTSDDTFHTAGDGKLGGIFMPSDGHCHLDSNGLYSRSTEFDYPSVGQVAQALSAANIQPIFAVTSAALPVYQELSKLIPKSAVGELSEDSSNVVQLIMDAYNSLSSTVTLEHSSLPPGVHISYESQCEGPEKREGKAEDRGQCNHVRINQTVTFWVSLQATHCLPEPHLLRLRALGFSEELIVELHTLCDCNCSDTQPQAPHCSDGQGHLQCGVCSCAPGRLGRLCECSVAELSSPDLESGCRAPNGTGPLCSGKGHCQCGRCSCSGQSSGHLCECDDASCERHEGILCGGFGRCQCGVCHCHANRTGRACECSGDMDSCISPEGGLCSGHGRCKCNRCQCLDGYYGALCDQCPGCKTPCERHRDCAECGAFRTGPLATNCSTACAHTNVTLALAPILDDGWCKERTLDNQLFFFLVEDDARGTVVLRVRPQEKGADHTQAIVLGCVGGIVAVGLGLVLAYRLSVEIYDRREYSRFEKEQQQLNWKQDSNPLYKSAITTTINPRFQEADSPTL
Method: Binding to α4β7 was assessed on JY cells in the presence of Mn^+2. In the binding assay, VCAM-Ig and oMePUPA-V compete for binding to α4β7 on JY cells (See section 4.1.1 for assay protocol). In the cell adhesion assay, oMePUPA-V was tested for its ability to block JY (α4β7) cell binding to CS1/BSA conjugate

[3] = Proteolytic stability, in vitro metabolism and in vivo PK studies; assay type: in vitro ADME; details: in vitro metabolism studies and in vivo PK studies in rat, dog and sheep
Oral availability = details: in vivo

Chain of VLA-4 (P05556 21-798, one chain of several): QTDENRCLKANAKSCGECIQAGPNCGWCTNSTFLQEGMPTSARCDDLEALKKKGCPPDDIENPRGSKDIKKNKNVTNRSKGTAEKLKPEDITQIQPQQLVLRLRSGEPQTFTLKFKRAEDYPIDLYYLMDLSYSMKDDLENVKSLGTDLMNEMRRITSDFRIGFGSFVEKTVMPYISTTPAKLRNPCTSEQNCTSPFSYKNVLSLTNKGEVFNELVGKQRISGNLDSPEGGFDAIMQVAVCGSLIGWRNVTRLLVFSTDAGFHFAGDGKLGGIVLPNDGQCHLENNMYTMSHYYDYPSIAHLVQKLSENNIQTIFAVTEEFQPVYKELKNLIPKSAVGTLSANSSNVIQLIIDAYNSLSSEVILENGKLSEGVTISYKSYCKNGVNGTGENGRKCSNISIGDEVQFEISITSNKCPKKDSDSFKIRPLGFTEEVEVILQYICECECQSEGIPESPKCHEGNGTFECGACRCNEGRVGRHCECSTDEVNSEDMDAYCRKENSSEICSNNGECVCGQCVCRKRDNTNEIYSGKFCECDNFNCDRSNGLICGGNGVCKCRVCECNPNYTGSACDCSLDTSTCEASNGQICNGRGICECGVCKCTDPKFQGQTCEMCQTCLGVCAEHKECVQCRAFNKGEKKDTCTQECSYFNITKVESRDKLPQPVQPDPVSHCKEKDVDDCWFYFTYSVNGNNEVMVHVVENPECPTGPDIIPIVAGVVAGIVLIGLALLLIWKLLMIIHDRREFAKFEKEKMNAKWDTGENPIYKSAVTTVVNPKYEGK

Cc1ccccc1NC(=O)Nc1ccc(CC(=O)N2CCC[C@H]2C(=O)N[C@H](C)CC(=O)O)cc1 [oMePUPA-V]
Ames test (mutagenicity) (Ames test (mutagenicity)): clean | IC50 (VLA-4; 1 mM MnCl2, read-out: IC50 ± SD, Jurkat cell CS1 adhesion): 22 nM | blocking of Jurkat cell adhesion to CS1 (in words) (VLA-4; in the presence of Mn+2): completely block | In vitro pharma screen 85 tests [1]: clean | activity in Panlabs and Cerep panels ([1]; at 10 μM): No significant activity | Formulated stability (40° C.), time stable [2]: stable >4 wk | inhibition, JY (α4β7) CS1/BSA adhesion (α4β7; @ 100 μM): no inhibition @ | blocking of α4β7 binding to CS1/BSA (in words) (α4β7; JY cells): does not block | proteolytic stability [3]: proteolytically stable | Oral availability (Oral availability): <1%
